Test results from ChEMBL document CHEMBL1145881, “Pyridone-containing farnesyltransferase inhibitors: synthesis and biological evaluation” (Bioorg Med Chem Lett, 2003).

How the values were obtained:
[1] = target: T1, Protein farnesyltransferase (Homo sapiens, UniProt P49354+P49356); test: In vitro effective concentration against farnesyltransferase (FT); assay type: protein-complex assay
[2] = target: T1, Protein farnesyltransferase; test: In vitro inhibitory activity against farnesyltransferase (FT); assay type: protein-complex assay
[3] = target: T2, Geranylgeranyl transferase type I (Homo sapiens, UniProt P49354+P53609); test: In vitro inhibitory activity against Geranylgeranyl transferase type I; assay type: protein-complex assay
[4] = target: T1, Protein farnesyltransferase; test: In vitro effective concentration against farnesyltransferase (FT); NA= Not active; assay type: protein-complex assay
[5] = target: T2, Geranylgeranyl transferase type I; test: In vitro inhibition of Geranylgeranyl transferase type I; NA means Not active; assay type: protein-complex assay
[6] = target: T1, Protein farnesyltransferase
[7] = target: T1, Protein farnesyltransferase; test: In vitro inhibition of farnesyltransferase (FT) at 100 nM; assay type: protein-complex assay

Row | EC50 [1] | IC50 [2] | IC50 [3] | EC50 [4] | IC50 [5] | EC50 [6] | inhibition [7] | SMILES
1 | 39 nM | 1.3 nM | 610 nM | – | – | – | – | Cn1cncc1C(OCc1c(-c2cccc(Cl)c2)cc(C#N)c(=O)n1C)c1ccc(C#N)c(Br)c1 (stereo not drawn)
2 | 15 nM | 1.1 nM | 1900 nM | – | – | – | – | Cn1cncc1C(OCc1c(-c2ccc(F)c(Cl)c2)cc(C#N)c(=O)n1C)c1ccc(C#N)cc1 (stereo not drawn)
3 | 7.3 nM | 0.84 nM | 12000 nM | – | – | – | – | Cn1cncc1C(OCc1c(-c2cc(F)cc(F)c2)cc(C#N)c(=O)n1C)c1ccc(C#N)cc1 (stereo not drawn)
4 | 16 nM | 0.77 nM | 190 nM | – | – | – | – | Cn1cncc1C(OCc1c(-c2cc(Cl)cc(Cl)c2)cc(C#N)c(=O)n1C)c1ccc(C#N)c(Cl)c1 (stereo not drawn)
5 | 17 nM | 0.7 nM | 1800 nM | – | – | – | – | Cn1cncc1C(OCc1c(-c2cc(F)cc(Cl)c2)cc(C#N)c(=O)n1C)c1ccc(C#N)cc1 (stereo not drawn)
6 | 4.7 nM | 0.41 nM | 3200 nM | – | – | – | – | COc1cccc(-c2cc(C#N)c(=O)n(C)c2COC(c2ccc(C#N)cc2)c2cncn2C)c1 (stereo not drawn)
7 | – | 1.6 nM | 2900 nM | – | – | 1.2 nM | – | Cn1cncc1C(OCc1c(-c2cc(Cl)ccc2Cl)cc(C#N)c(=O)n1C)c1ccc(C#N)cc1 (stereo not drawn)
8 | 2.1 nM | 0.51 nM | 3400 nM | – | – | – | – | Cn1cncc1C(OCc1c(-c2cccc(Br)c2)cc(C#N)c(=O)n1C)c1ccc(C#N)cc1 (stereo not drawn)
9 | 88 nM | 0.75 nM | > 1000 nM | – | – | – | – | Cn1cncc1C(OCc1c(-c2cccc(Cl)c2)cc(C#N)c(=O)n1C)c1ccc(C#N)c(I)c1 (stereo not drawn)
10 | 24 nM | 0.97 nM | 890 nM | – | – | – | – | Cn1cncc1C(OCc1c(-c2cccc(Cl)c2)cc(C#N)c(=O)n1C)c1ccc(C#N)c(Cl)c1 (stereo not drawn)
11 | > 100 nM | 0.81 nM | 7500 nM | – | – | – | – | Cn1cncc1C(OCc1c(-c2cc(Cl)cc(Cl)c2)cc(C#N)c(=O)n1C)c1ccc(C#N)c(I)c1 (stereo not drawn)
12 | 11 nM | 2.1 nM | > 10000 nM | – | – | – | – | Cn1cncc1C(OCc1c(-c2cccc(F)c2)cc(C#N)c(=O)n1C)c1ccc(C#N)cc1 (stereo not drawn)
13 | > 100 nM | 1.3 nM | 30 nM | – | – | – | – | Cn1cncc1C(OCc1c(-c2ccc(OC(F)(F)F)cc2)cc(C#N)c(=O)n1C)c1ccc(C#N)c(-c2cccc(Cl)c2)c1 (stereo not drawn)
14 | – | 6.1 nM | 2500 nM | Not Active | – | – | – | Cn1cncc1C(OCc1c(-c2cccc(Cl)c2Cl)cc(C#N)c(=O)n1C)c1ccc(C#N)cc1 (stereo not drawn)
15 | 12 nM | 0.036 nM | 3000 nM | – | – | – | – | CCCn1c(COC(c2ccc(C#N)cc2)c2cncn2C)c(-c2cccc(Cl)c2)cc(C#N)c1=O (stereo not drawn)
16 | – | 2 nM | 120 nM | Not Active | – | – | – | Cn1cncc1C(OCc1c(-c2cc(Cl)cc(Cl)c2)cc(C#N)c(=O)n1C)c1ccc(C#N)c(-c2cccc(Cl)c2)c1 (stereo not drawn)
17 | – | 5.3 nM | > 900 nM | – | – | – | 75% | Cc1ncc(C(OCc2c(-c3cccc(Cl)c3)cc(C#N)c(=O)n2C)c2ccc(C#N)cc2)n1C (stereo not drawn)
18 | 0.81 nM | 0.67 nM | 1500 nM | – | – | – | – | CCOc1cccc(-c2cc(C#N)c(=O)n(C)c2COC(c2ccc(C#N)cc2)c2cncn2C)c1 (stereo not drawn)
19 | 2.9 nM | 0.73 nM | 3300 nM | – | – | – | – | CCn1c(COC(c2ccc(C#N)cc2)c2cncn2C)c(-c2cccc(Cl)c2)cc(C#N)c1=O (stereo not drawn)
20 | 6.8 nM | 0.46 nM | 1700 nM | – | – | – | – | Cn1cncc1C(OCc1c(-c2cc(Cl)cc(Cl)c2)cc(C#N)c(=O)n1C)c1ccc(C#N)cc1 (stereo not drawn)
21 | 15 nM | 0.36 nM | 150 nM | – | – | – | – | Cn1cncc1C(OCc1c(-c2ccc(OC(F)(F)F)cc2)cc(C#N)c(=O)n1C)c1ccc(C#N)c(Cl)c1 (stereo not drawn)
22 | > 100 nM | 0.42 nM | 290 nM | – | – | – | – | Cn1cncc1C(OCc1c(-c2cc(Cl)cc(Cl)c2)cc(C#N)c(=O)n1C)c1ccc(C#N)c(Br)c1 (stereo not drawn)
23 | 10 nM | 1.5 nM | 5500 nM | – | – | – | – | Cn1cncc1C(OCc1c(-c2ccc(F)c(F)c2)cc(C#N)c(=O)n1C)c1ccc(C#N)cc1 (stereo not drawn)
24 | 21 nM | 1 nM | 94 nM | – | – | – | – | Cn1cncc1C(OCc1c(-c2cccc(Cl)c2)cc(C#N)c(=O)n1C)c1ccc(C#N)c(-c2cccc(Cl)c2)c1 (stereo not drawn)
25 | 86 nM | 0.49 nM | 2300 nM | – | – | – | – | Cn1cncc1C(OCc1c(-c2ccc(Cl)c(Cl)c2)cc(C#N)c(=O)n1C)c1ccc(C#N)cc1 (stereo not drawn)

The remaining lines, values behind:

Row | SMILES | EC50 [1] | IC50 [2] | IC50 [3] | EC50 [4] | IC50 [5] | EC50 [6] | inhibition [7]
26 | Cn1cncc1C(OCc1c(-c2ccc(OC(F)(F)F)cc2)cc(C#N)c(=O)n1C)c1ccc(C#N)c(-c2ccccc2Cl)c1 (stereo not drawn) | > 100 nM | 3.9 nM | 110 nM | – | – | – | –
27 | Cn1cncc1C(OCc1c(-c2ccc3c(c2)OC(F)(F)O3)cc(C#N)c(=O)n1C)c1ccc(C#N)cc1 (stereo not drawn) | 19 nM | 0.69 nM | 6200 nM | – | – | – | –
28 | Cn1cncc1C(OCc1c(-c2ccc(OC(F)(F)F)cc2)cc(C#N)c(=O)n1C)c1ccc(C#N)c(-c2ccc(Cl)cc2)c1 (stereo not drawn) | > 100 nM | 6.5 nM | 160 nM | – | – | – | –
29 | Cn1cncc1C(OCc1c(-c2cccc(OC(F)(F)F)c2)cc(C#N)c(=O)n1C)c1ccc(C#N)cc1 (stereo not drawn) | 3.9 nM | 0.42 nM | 1050 nM | – | – | – | –
30 | Cn1cncc1C(OCc1c(-c2cccc(Cl)c2F)cc(C#N)c(=O)n1C)c1ccc(C#N)cc1 (stereo not drawn) | 24 nM | 1.8 nM | 1500 nM | – | – | – | –
31 | Cn1c(COC(c2ccc(C#N)cc2)c2c[nH]cn2)c(-c2cccc(Cl)c2)cc(C#N)c1=O (stereo not drawn) | – | 71 nM | – | Not Active | Not Active | – | –
32 | Cn1c(COC(c2ccc(C#N)cc2)c2cncs2)c(-c2ccc(OC(F)(F)F)cc2)cc(C#N)c1=O (stereo not drawn) | – | – | – | Not Active | – | – | –
33 | Cn1cncc1C(OCc1[nH]c(=O)c(C#N)cc1-c1cccc(Cl)c1)c1ccc(C#N)cc1 (stereo not drawn) | > 100 nM | 0.85 nM | 820 nM | – | – | – | –
34 | Cn1cncc1C(OCc1c(-c2cccc(F)c2F)cc(C#N)c(=O)n1C)c1ccc(C#N)cc1 (stereo not drawn) | – | 6.3 nM | 3400 nM | Not Active | – | – | –
35 | Cn1cncc1C(OCc1c(-c2cccc(Cl)c2)cc(C#N)c(=O)n1CC1CC1)c1ccc(C#N)cc1 (stereo not drawn) | 4.8 nM | 0.5 nM | 2000 nM | – | – | – | –
36 | Cn1cncc1C(OCc1c(-c2ccc(F)cc2F)cc(C#N)c(=O)n1C)c1ccc(C#N)cc1 (stereo not drawn) | > 100 nM | 5.5 nM | 4300 nM | – | – | – | –
37 | Cn1cncc1C(OCc1c(-c2ccc3c(c2)OCO3)cc(C#N)c(=O)n1C)c1ccc(C#N)cc1 (stereo not drawn) | 2.1 nM | 0.42 nM | 3300 nM | – | – | – | –
38 | Cn1cncc1C(OCc1ccc(C#N)cn1)c1ccc(C#N)c(-c2cccc3ccccc23)c1 (stereo not drawn) | 5.9 nM | 0.73 nM | – | – | – | – | –
39 | Cn1cncc1C(OCc1c(-c2cc(F)ccc2F)cc(C#N)c(=O)n1C)c1ccc(C#N)cc1 (stereo not drawn) | 110 nM | 2.7 nM | 15000 nM | – | – | – | –
40 | Cn1cncc1C(OCc1c(-c2ccc(OC(F)(F)F)cc2)cc(C#N)c(=O)n1C)c1ccc(C#N)cc1 (stereo not drawn) | 3.9 nM | 0.73 nM | 1400 nM | – | – | – | –
41 | Cn1c(COC(c2ccc(C#N)cc2)c2cncs2)c(-c2cc(Cl)cc(Cl)c2)cc(C#N)c1=O (stereo not drawn) | > 100 nM | 1.9 nM | > 10000 nM | – | – | – | –
42 | Cn1cncc1C(OCc1c(-c2ccc(OC(F)(F)F)cc2)cc(C#N)c(=O)n1C)c1ccc(C#N)c(Br)c1 (stereo not drawn) | 10 nM | 0.89 nM | 220 nM | – | – | – | –
